We go through one compound from ChEMBL document CHEMBL1129416, “Brain-targeted delivery of a leucine-enkephalin analogue by retrometabolic design” (J Med Chem, 1996).

The structures appear in SMILES notation.

A short description of the assay: The compound was evaluated for opioid receptors binding affinity competition with [3H]diprenorphine.

What is called IC50 is the concentration that inhibits the measured activity by half. Read a low IC50 as higher potency. As for `CC(C)C[C@@H](NC(=O)[C@H](Cc1ccccc1)NC(=O)CNC(=O)[C@@H](C)NC(=O)[C@@H](N)Cc1ccc(O)cc1)C(=O)O` [DADLE], the IC50 was 0.036 µM.
